Where “and” joins values, the source holds several entries; their conditions need not be identical. Identical values can stand only once.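 Tested at 5 concentrations; 48 h exposure; 96-well plates; endpoints linearly interpolated, else capped at highest concentration. GI50 marks 50% less growth. TGI: total growth inhibition.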
How the values were obtained:
Assay in all cases: NCI tumour cell line growth inhibition, 48 h
DMS 114 small cell lung = system: DMS 114 small cell lung
EKVX NSCLC = system: EKVX NSCLC
OVCAR-4 ovarian = system: OVCAR-4 ovarian
CAKI-1 renal = system: CAKI-1 renal
HCT-15 colon = system: HCT-15 colon
SNB-78 CNS = system: SNB-78 CNS
LXFL 529 NSCLC = system: LXFL 529 NSCLC
NCI-H522 lung = system: NCI-H522 lung
ACHN renal = system: ACHN renal
RPMI-8226 leukemia = system: RPMI-8226 leukemia
A498 renal = system: A498 renal
M19-MEL melanoma = system: M19-MEL melanoma

| Structure (SMILES) | TGI (DMS 114 small cell lung) [µM] | TGI (EKVX NSCLC) | TGI (OVCAR-4 ovarian) | TGI (CAKI-1 renal) | TGI (HCT-15 colon) | TGI (SNB-78 CNS) [µM] | TGI (LXFL 529 NSCLC) [µM] | TGI (NCI-H522 lung) | TGI (ACHN renal) | TGI (RPMI-8226 leukemia) | GI50 (EKVX NSCLC) | GI50 (A498 renal) | TGI (A498 renal) | GI50 (OVCAR-4 ovarian) | GI50 (CAKI-1 renal) | GI50 (HCT-15 colon) | GI50 (NCI-H522 lung) | GI50 (ACHN renal) | GI50 (RPMI-8226 leukemia) | TGI (M19-MEL melanoma) [µM] |
| --- | --- | --- | --- | --- | --- | --- | --- | --- | --- | --- | --- | --- | --- | --- | --- | --- | --- | --- | --- | --- |
| N#CCc1cccc(CC#N)c1Br | > 100 | > 100 µM | > 100 µM | > 100 µM | > 100 µM | > 100 | > 100 | > 100 µM | > 100 µM | > 100 µM | – | – | – | – | – | – | – | – | – | – |
| CSC1=Nc2c(c(C)c(-c3ccccc3)n2COC(CO)CO)C2=NC(=O)CC(C)N12 (stereo not given) | – | > 100 µM | > 100 µM | > 100 µM | > 100 µM | – | – | > 100 µM | > 100 µM | > 100 µM | > 100 µM | > 100 µM | > 100 µM | > 100 µM | > 100 µM | > 100 µM | > 100 µM | > 100 µM | > 100 µM | – |
| Nn1c(-c2ccc(Cl)cc2)nc2c(-c3ccc(Cl)cc3)nc3ccc(Cl)cc3c2c1=O | – | > 100 µM | 15.1 µM | 22 µM | > 100 µM | – | – | > 100 µM | 25.5 µM | 26.3 µM | 5.86 µM | 36 µM | 75.7 µM | 3.55 µM | 3.97 µM | > 100 µM | 20.9 µM | 5.42 µM | 4.14 µM | – |
| Cc1cc(NN=C(c2ccc(O)cc2)c2ccc(O)cc2)c([N+](=O)[O-])cc1[N+](=O)[O-] | – | 26.6 µM | > 100 µM | 51.1 µM | 53.6 µM | – | – | 11.4 µM | > 100 µM | 4.16 µM | 4.54 µM | 9.29 µM | 23.9 µM | 6.38 µM | 18.7 µM | 4.19 µM | 1.08 µM | 4.08 µM | 1.32 µM | – |
| C=CC(=O)Nc1cc2c(Nc3ccc(F)c(Cl)c3)ncnc2cc1C#CC(C)(C)N1CCN(C)CC1 | – | 4.39 µM | 2.86 µM | 4.05 µM | 5.11 µM | – | – | 2.28 µM | 4.26 µM | 5.17 µM | 0.246 µM | 1.21 µM | 3.94 µM | 1.32 µM | 0.973 µM | 1.68 µM | 0.456 µM | 0.0779 µM | 1.77 µM | – |
| Cn1c(=O)c2c(nc(N/N=C/c3ccccc3C(=O)O)n2C)n(C)c1=O | – | > 100 µM | > 100 µM | > 100 µM | > 100 µM | – | – | > 100 µM | > 100 µM | > 100 µM | – | – | > 100 µM | – | – | – | – | – | – | – |
| N#[N+]c1ccc(Nc2ccccc2)cc1 | – | > 50 µg/mL | 2.27 µg/mL | 19.3 µg/mL | > 50 µg/mL | – | – | > 50 µg/mL | > 50 µg/mL | > 50 µg/mL | > 50 µg/mL | > 50 µg/mL | > 50 µg/mL | 0.472 µg/mL | 1.11 µg/mL | > 50 µg/mL | > 50 µg/mL | > 50 µg/mL | > 50 µg/mL | – |
| O=C(O)c1ccccc1NCn1c(=S)sc2ccccc21 | – | > 100 µM | > 100 µM | > 100 µM | > 100 µM | – | – | 78.3 µM | > 100 µM | 95.4 µM | – | – | > 100 µM | – | – | – | – | – | – | – |
| Clc1ccc(CN2CCCN(Cc3ccc(Cl)cc3)C2c2cc3ccccc3c3ccccc23)cc1 | – | > 100 µM | > 100 µM | > 100 µM | > 100 µM | – | – | 51 µM | > 100 µM | > 100 µM | – | – | 56.5 µM | – | – | – | – | – | – | – |
| CC(=O)OCC1OC(n2c3c(cc(C#N)c2=S)CCCC3)C(OC(C)=O)C(OC(C)=O)C1OC(C)=O (stereo not given) | – | > 100 µM | > 100 µM | > 100 µM | > 100 µM | – | – | > 100 µM and 98.7 µM | > 100 µM | > 100 µM | – | – | > 100 µM | – | > 100 µM and 42.1 µM | – | – | – | 32.6 µM and > 100 µM | – |
| CCc1ccc2c(c1)N(CCO)C1=C(C(=O)OC1)C2c1cc(OC)c(OC)c(OC)c1 (stereo not given) | – | > 50 µM | > 50 µM | > 50 µM | > 50 µM | – | – | 0.26 µM | > 50 µM | 42 µM | 1.17 µM | 0.103 µM | 0.932 µM | 0.362 µM | 0.599 µM | 0.425 µM | 0.0837 µM | 0.389 µM | 0.201 µM | – |
| O=C1OC(=O)C([Se]c2ccccc2)=C1[Se]c1ccccc1 | > 100 | > 100 µM | > 100 µM | > 100 µM | > 100 µM | > 100 | > 100 | > 100 µM | > 100 µM | > 100 µM | – | – | > 100 µM | – | – | – | – | – | – | – |
| O=C(/C=C/c1ccccc1O)c1ccccc1Cl | 58 | > 100 µM | > 100 µM | > 100 µM | > 100 µM | > 100 | > 100 | 80.4 µM | > 100 µM | – | – | – | > 100 µM | – | – | – | – | – | – | > 100 |
| O=C1C(=O)C2(CC1S(=O)(=O)c1ccccc1)c1ccccc1-c1ccccc12 (stereo not given) | 53.3 | 72.8 µM | > 100 µM | 61.6 µM | 34.6 µM | 45.6 | 31 | 43.1 µM | 92 µM | 58.9 µM | – | – | 34.8 µM | – | – | – | – | – | – | – |
| COc1cc2c3cc1Oc1c(OC)c(OC)cc4c1C(Cc1ccc(O)c(c1)Oc1ccc(cc1)CC3N(C)CC2)N(C)CC4 (stereo not given) | – | > 100 µM | > 100 µM and 50.7 µM | 48.5 µM and 40.6 µM | 37.6 µM and > 100 µM | – | – | > 100 µM and 30.4 µM | 34.9 µM and 44.1 µM | 40.1 µM | – | – | 48.4 µM | 15.3 µM | 14 µM | 4.82 µM | 13.4 µM | 12.7 µM | 11.8 µM | – |
| O=C1CCC(=O)N1Sc1ccccc1 | > 100 | > 100 µM | > 100 µM | > 100 µM | > 100 µM | > 100 | – | > 100 µM | > 100 µM | > 100 µM | – | – | > 100 µM | – | – | – | – | – | – | > 100 |
| C[As](C)SC1OCC(O)C(O)C1O (stereo not given) | – | 6.23 µM | 7.63 µM | 0.273 µM | 0.611 µM | – | – | 0.211 µM | 0.624 µM | 0.604 µM | 1.29 µM | 0.316 µM | 1.22 µM | 1.09 µM | 0.0514 µM | 0.107 µM | 0.0712 µM | 0.148 µM | 0.0537 µM | – |
| NC1=NCN(C2OC(CO)C(O)C2O)C(=O)N1 (stereo not given) | 437 | 1870 µM | 1510 µM | 339 µM | 530 µM | 1780 | – | 144 µM | 106 µM | 159 µM | – | – | 804 µM | – | – | – | – | – | – | 1760 |

— PubChem BioAssay (NCI)
